In patent publication US20210309677A1, “NOVEL AMINOPHOSPHINIC DERIVATIVES AS AMINOPEPTIDASE A INHIBITORS” (QUANTUM GENOMICS, priority 2018, published 2021):

These molecules were tested against T1, recombinant mouse APA (Mus musculus, UniProt P16406) (assay: Measurement of APA activity in vitro (hydrolysis of GluβNa, colorimetric)). Settings: 200 μM Glu-βNa, pH 7.4, 37° C., 4 mM CaCl2, read-out: In vitro inhibition of aminopeptidase A, IC50 classification.
T1 sequence (P16406 1-945): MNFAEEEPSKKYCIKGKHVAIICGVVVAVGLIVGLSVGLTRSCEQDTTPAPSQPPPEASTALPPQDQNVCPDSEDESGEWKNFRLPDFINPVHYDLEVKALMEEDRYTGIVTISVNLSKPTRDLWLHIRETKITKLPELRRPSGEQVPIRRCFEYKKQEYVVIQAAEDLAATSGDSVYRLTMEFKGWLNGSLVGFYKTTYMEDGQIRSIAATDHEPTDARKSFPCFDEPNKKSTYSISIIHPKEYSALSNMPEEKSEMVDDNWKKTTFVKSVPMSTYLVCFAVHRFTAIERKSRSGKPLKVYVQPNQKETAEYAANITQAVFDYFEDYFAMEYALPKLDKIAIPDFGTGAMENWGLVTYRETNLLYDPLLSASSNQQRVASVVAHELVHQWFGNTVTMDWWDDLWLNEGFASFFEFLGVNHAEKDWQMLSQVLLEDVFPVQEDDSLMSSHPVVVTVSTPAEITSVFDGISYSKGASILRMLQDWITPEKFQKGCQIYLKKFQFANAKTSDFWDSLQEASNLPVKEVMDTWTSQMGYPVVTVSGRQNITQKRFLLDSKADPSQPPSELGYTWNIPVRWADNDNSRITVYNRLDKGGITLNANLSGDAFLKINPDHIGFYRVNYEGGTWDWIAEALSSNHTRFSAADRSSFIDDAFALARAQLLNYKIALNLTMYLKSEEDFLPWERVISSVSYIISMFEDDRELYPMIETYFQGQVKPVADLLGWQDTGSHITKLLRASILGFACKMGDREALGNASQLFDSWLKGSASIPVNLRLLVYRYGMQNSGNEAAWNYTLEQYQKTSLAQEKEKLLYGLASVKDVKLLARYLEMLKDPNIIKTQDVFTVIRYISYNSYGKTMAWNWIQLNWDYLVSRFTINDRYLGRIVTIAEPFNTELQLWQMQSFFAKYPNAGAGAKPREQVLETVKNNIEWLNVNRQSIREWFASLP
Assay type: biochemical
Text: Measurement of APA activity in vitro is based on the protocol of Goldbarg adjusted to the scale of assaying on microplates (Pro Bind™ 3915) (Chauvel et al., 1994). In vitro, in the presence of calcium ions, APA hydrolyses a synthetic substrate α-L-glutamyl-β-naphthylamide (GluβNa) to glutamate and β-naphthylamine ((βNa). A diazotation reaction in acidic medium makes it possible to reveal the β-naphthylamine by formation of a violet-coloured complex: spectrophotometric measurement then makes it possible to know the amount of complex formed and, by reference to a standard curve produced with increasing concentrations of β-naphthylamine, to deduce the enzymatic activity of the sample.
The Glu-βNa substrate (Bachem) and the β-naphthylamine (Sigma) are dissolved in 50% DMSO (dimethyl sulphoxide) and 0.1 N HCl respectively, and conserved at −20° C. at a concentration of 10^−2 M. The diazotation reaction is carried out in the presence of sodium nitrite (87 mM), ammonium sulfamate (130 mM) and N-(1-naphthyl)-ethylenediamine dihydrochloride (23 mM in 95% ethanol).
The reaction takes place at pH 7.4 in 50 mM tris-HCl buffer, in the presence of calcium (4 mM CaCl2); recombinant mouse APA is incubated at 37° C. in the presence of the substrate (200 μM Glu-βNa) and in the presence or absence of various concentrations of the inhibitor to be tested, in a final volume of 100 μL. The reaction is stopped by adding 10 μL, of 3N HCl. A standard curve of β-naphthylamine was prepared in parallel by diazotizing increasing concentrations (up to 0.2 mM) of 2-naphthylamine in 0.1 N HCl.
The following are added to each well: 25 μL of sodium nitrite (NaNO2) (mix, wait 5 minutes at room temperature), 50 μI, of ammonium sulfamate (mix, wait 5 minutes at room temperature), then add 25 μL of N-(1-naphthyl) ethylenediamine dihydrochloride (mix, wait for stabilization of the violet colour for approximately 30 minutes at 37° C.). The absorbance is then measured at 540 nm.
The compound EC33 ((S)-3 amino-4-mercapto-butylsulfonic acid) described in application WO 99/36066 was used as a reference compound.
`NC(CCC(=O)O)P(=O)(O)CC1CCC1` (centres unmarked) [Example 8, 4-amino-4-[(cyclobutylmethyl)(hydroxy)phosphoryl]butanoic acid] gave an IC50 of less than 30 nM. Molecule `CC(C)CCCP(=O)(O)C(N)CCC(=O)O` (centres unmarked) [Example 2, 4-amino-4-[hydroxy(4-methylpentyl)phosphoryl]butanoic acid] has an IC50 of 30 to 300 nM. For `NC(CCC(=O)O)P(=O)(O)CCCC(F)(F)F` (centres unmarked) [Example 6, 4-amino-4-[hydroxy(4,4,4-trifluorobutyl)phosphoryl]butanoic acid], the IC50 was 30 to 300 nM. For `CCCCCCP(=O)(O)C(N)CCC(=O)O` (centres unmarked) [Example 5, 4-amino-4-[hexyl(hydroxy)phosphoryl]butanoic acid], the IC50 was 30 to 300 nM. `CC(C)CCP(=O)(O)C(N)CCC(=O)O` (centres unmarked) [Example 1, 4-amino-4-[hydroxy(3-methylbutyl)phosphoryl]butanoic acid] gave an IC50 of 30 to 300 nM. Molecule `CC(C)CCCCP(=O)(O)C(N)CCC(=O)O` (centres unmarked) [Example 3, 4-amino-4-[hydroxy(5-methylhexyl)phosphoryl]butanoic acid] has an IC50 of 30 to 300 nM. `NC(CCC(=O)O)P(=O)(O)CC1CCCC1` (centres unmarked) [Example 9, 4-amino-4-[(cyclopentylmethyl)(hydroxy)phosphoryl]butanoic acid] gave an IC50 of less than 30 nM. `N[C@H](CS)CCS(=O)(=O)O` [EC33, (S)-3 amino-4-mercapto-butylsulfonic acid, reference compound] showed an IC50 of 300 to 10000 nM. `NC(CCC(=O)O)P(=O)(O)CC1CCCCC1` (centres unmarked) [Example 10, 4-amino-4-[(cyclohexylmethyl)(hydroxy)phosphoryl]butanoic acid] gave an IC50 of less than 30 nM. `NC(CCC(=O)O)P(=O)(O)CCC1CCCCC1` (centres unmarked) [Example 7, 4-amino-4-[(2-cyclohexylethyl)(hydroxy)phosphoryl]butanoic acid] was tested, and the IC50 was 30 to 300 nM. `CCCCCP(=O)(O)C(N)CCC(=O)O` (centres unmarked) [Example 4, 4-amino-4-[hydroxy(pentyl)phosphoryl]butanoic acid] showed an IC50 of 30 to 300 nM.
